Assay results reported in patent US11015224B2, “RAF gene fusions” (THE REGENTS OF THE UNIVERSITY OF MICHIGAN, priority 2010, dated 2021).

Legend:
BRAFV600E mutation = BRAFV600E mutation (Homo sapiens, UniProt P15056, V600E); conditions: Sala et al. 2008; cited from earlier work
[1] = system: DUSP6 or SPRY2 mRNA expression in RWPE cells expressing SLC45A3-BRAF; conditions: U0126, 10 mM, 2 hours, Keratinocyte-supplement free media, FIG. 11
Experimental: (§1) MEK-ERK signaling pathway analysis. Stable pooled populations of RWPE cells expressing SLC45A3-BRAF or […] were maintained in supplement-free medium without supplements for 2 h. For MEK inhibitor treatments, U0126 (10 μM) was added in the supplement-free keratinocyte medium for 2 h. MEK and ERK activation was assessed by western blot analysis with antibodies to phospho-MEK or ERK and total MEK or ERK antibodies (Cell Signaling Technologies).
(§2) Real Time PCR validation. Quantitative PCR (QPCR) was performed using Power SYBR Green Mastermix (Applied Biosystems) on an Applied Biosystems StepOnePlus Real-Time PCR System. All oligonucleotide primers were obtained from Integrated DNA Technologies and are listed below. The GAPDH primer was used as a control. All assays were performed and repeated twice and results were plotted as average fold change relative to GAPDH.

[2] = system: DUSP6 or SPRY2 mRNA expression in RWPE cells expressing ESRP1-RAF1; conditions: U0126, 10 mM, 2 hours, Keratinocyte-supplement free media, FIG. 11
Experimental: as §1, §2

[3] = system: RWPE cells stably expressing ESRP1-RAF1; conditions: sorafenib or U0126 (10 μM), 14 d, FIG. 4c,d
Experimental: (§3) In vitro soft agar growth. For in vitro growth in soft agar, 2 ml of 0.6% SeaPlaque GTG Agarose (Cambrex) dissolved in complete keratinocyte supplement-free medium (Invitrogen) was poured into six-well dishes. After polymerization, a second layer containing 2 ml of 0.4% agar in complete keratinocyte supplement-free medium, and RWPE cells stably expressing SLC45A3-BRAF or ESRP1-RAF 1 (1×10^4 cells per well) were poured on top. The next day, cells were treated with sorafenib or U0126 (10 μM) in 1 ml of supplement-free keratinocyte medium. Soft-agar assay plates were incubated for 14 d at 37° C. MEK inhibitor (U0126) or sorafenib was changed once a week. Each experimental condition was done in triplicate. On day 14, colonies larger than 40 μm in diameter were counted.

[4] = system: RWPE cells stably expressing SLC45A3-BRAF; conditions: sorafenib or U0126 (10 μM), 14 d, FIG. 4c,d
Experimental: as §3

[5] = system: RWPE cells expressing SLC45A3-BRAF; conditions: sorafenib (10 μM) or U0126 (1 or 10 μM), FIG. 4a,b
Experimental: (§4) Cell invasion and proliferation assays. Equal numbers of cells were plated into 96-well plates, and a cell proliferation assay was performed using WST-1 reagent (Roche) following the manufacturer's protocol. For the Boyden chamber Matrigel invasion assay, equal numbers of cells were plated into each Matrigelcoated transwell in the presence of sorafenib or U0126 (Calbiochem) or DMSO (Sigma). Invasion assays were performed as described previously (Kleer, C. G. et al. Proc. Natl. Acad. Sci. USA 100, 11606-11611 (2003); Cao, Q. et al. Oncogene 27, 7274-7284 (2008)).

[6] = system: RWPE cells expressing ESRP1-RAF1; conditions: sorafenib (10 μM) or U0126 (1 or 10 μM), FIG. 4a,b
Experimental: as §4

[7] = system: MEK and ERK phosphorylation in RWPE cells expressing SLC45A3-BRAF; conditions: U0126 (10 μM) for 2 h, FIG. 4e
Experimental: as §1

[8] = system: MEK and ERK phosphorylation in RWPE cells expressing ESRP1-RAF1; conditions: U0126 (10 μM) for 2 h, FIG. 4e
Experimental: as §1

[9] = system: MEK½ and ERK½ phosphorylation in BRAFV600E mutation-positive melanoma cell line SK-MEL-94; conditions: SK-MEL-94 control cell line
Experimental: as §1

[10] = system: RWPE cells overexpressing ESRP1-RAF1; test: Cell proliferation assay (WST-1); format: cell-based, human; conditions: RWPE cells overexpressing ESRP1-RAF1, FIG. 3d
Description: Cell invasion and proliferation assays.

[11] = system: RWPE cells overexpressing SLC45A3-BRAF; conditions: FIG. 3c
Experimental: as §4

Sequence of BRAFV600E mutation (P15056 whole entry V600E): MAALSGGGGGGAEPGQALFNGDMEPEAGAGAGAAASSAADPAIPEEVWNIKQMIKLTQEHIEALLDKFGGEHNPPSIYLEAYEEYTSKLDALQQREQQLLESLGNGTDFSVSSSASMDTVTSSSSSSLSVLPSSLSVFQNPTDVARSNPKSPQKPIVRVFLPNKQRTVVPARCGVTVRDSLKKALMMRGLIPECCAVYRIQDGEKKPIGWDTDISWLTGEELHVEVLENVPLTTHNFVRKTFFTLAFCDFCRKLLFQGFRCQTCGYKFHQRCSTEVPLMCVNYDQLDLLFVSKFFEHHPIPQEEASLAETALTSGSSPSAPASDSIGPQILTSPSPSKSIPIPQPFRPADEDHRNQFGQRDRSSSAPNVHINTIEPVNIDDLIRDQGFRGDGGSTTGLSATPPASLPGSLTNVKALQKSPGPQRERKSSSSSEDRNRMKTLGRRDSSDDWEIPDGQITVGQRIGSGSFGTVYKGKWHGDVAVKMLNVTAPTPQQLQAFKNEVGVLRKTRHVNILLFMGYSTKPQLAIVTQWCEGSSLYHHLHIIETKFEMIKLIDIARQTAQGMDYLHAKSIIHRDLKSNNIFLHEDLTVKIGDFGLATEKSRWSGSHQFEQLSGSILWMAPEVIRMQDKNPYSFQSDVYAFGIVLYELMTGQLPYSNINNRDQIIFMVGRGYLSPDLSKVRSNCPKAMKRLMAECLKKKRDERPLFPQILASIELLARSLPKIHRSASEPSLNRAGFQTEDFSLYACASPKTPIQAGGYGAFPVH

| Structure (SMILES) | selectivity for the BRAFV600E mutation (BRAFV600E mutation) | DUSP6 or SPRY2 mRNA expression [1] | DUSP6 or SPRY2 mRNA expression [2] | anchorage-independent colony growth in soft agar, sensitivity to inhibitor [3] | anchorage-independent colony growth in soft agar, sensitivity to inhibitor [4] | fusion-mediated cell invasion, sensitivity to inhibitor [5] | fusion-mediated cell invasion, sensitivity to inhibitor [6] | MEK and ERK phosphorylation, sensitivity to inhibitor [7] | MEK and ERK phosphorylation, sensitivity to inhibitor [8] | MEK½ and ERK½ phosphorylation [9] | increased cell proliferation, sensitivity to inhibitor [10] | increased cell proliferation, sensitivity to inhibitor [11] |
| --- | --- | --- | --- | --- | --- | --- | --- | --- | --- | --- | --- | --- |
| CC(C)S(=O)(=O)Nc1ccc(F)c(C(=O)c2c[nH]c3ncc(-c4cccnc4)cc23)c1F [PLX-4032] | highly selective |  |  |  |  |  |  |  |  |  |  |  |
| N#CC(=C(/N)Sc1ccccc1N)/C(C#N)=C(\N)Sc1ccccc1N [U0126] |  | significantly decreases | significantly decreases | sensitive | sensitive | sensitive | sensitive | sensitive | sensitive | decreased |  |  |
| CNC(=O)c1cc(Oc2ccc(NC(=O)Nc3ccc(Cl)c(C(F)(F)F)c3)cc2)ccn1 [sorafenib, N-(3-trifluoromethyl-4-chlorophenyl)-N′-(4-(2-methylcarbamoylpyridin-4-yl)oxyphenyl)urea] |  |  |  | sensitive | sensitive | sensitive | sensitive |  |  |  | sensitive | sensitive |
